From US20210369691A1, “METHODS AND COMPOSITIONS FOR IMPROVING BONE MARROW HEMATOPOIETIC FUNCTIONS” (Sun Yat-Sen University, priority 2018, published 2021)

Experiments:
Assay type in all cases: in vivo, mice
[1] = Survival after serial 5FU challenges every 7 days with ABC294640 every other day; conditions: vs control, FIG. 30
Method: FIG. 30. illustrates the survival of C57BL/6J mice after serious 5FU treatment every 7 days and ABC294640 treatment every other day (n=10 mice group).
Repopulation analyses was also performed to investigate whether ABC294640 treatment functionally promotes HSC regeneration after chemotherapeutic stress.

[2] = test system: hematopoietic stem cells; test: Hematopoietic stem cell number in bone marrow after 5FU injury with ABC294640 treatment; conditions: vs solvent control
Method: In order to calculate the number of hematopoietic stem cells in mice, statistical quantification was performed for the number of hematopoietic stem cells using the molecular marker system Lin^−Sca1^+c-Kit^+CD150^+CD48^−, in combination with flow cytometry. Briefly, 2 million bone marrow cells were resuspended in 100 μl PBS, and 2 μl of a combination of anti-Lin, anti-Sca-1, anti-c-Kit, anti-CD150 and anti-CD48 was added. Samples were kept on ice for 1 h and washed with 1 ml of PBS, then resuspended with […] of PBS for flow cytometry analysis to determine the number of hematopoietic stem cells in the mouse bone marrow. T-test analysis was carried out using Graphpad6.0, and the difference was considered statistically significant when P<0.05. Twenty 8-week-old C57 mice (purchased from Laboratory Animal Center, Sun Yat-sen University) were injected intraperitoneally with 5FU at a dose of 150 mg/kg, respectively. After 5FU treatment, control mice (10 mice) were injected with a solvent control solution (1:1 physiological saline: PEG400) and the SphK2 inhibitor treatment mice (10 mice) were injected with the SphK2 inhibitor ABC294640. Briefly, 5FU was injected on day 1, and the inhibitor and solvent control solution were injected on day 2 and every other day, for five times in total. […] The SphK2 inhibitor ABC294640 was purchased from Selleck and dissolved in dimethyl sulfoxide (DMSO), it was then diluted with a mixture solution of polyethylene glycol 400 (PEG400) and physiological saline (1:1), and was injected to the mice with a dose of 10 mg/kg. T-test analysis was carried out using Graphpad6.0, and the differences were considered statistically significant when P<0.05.

[3] = test system: white blood cells; test: White blood cell recovery in peripheral blood after 5FU; conditions: after 5FU 150 mg/kg once; ABC294640 10 mg/kg every other day; days 0, 1, 5, 11; vs solvent control; FIG. 5
Method: Preparation of the SphK2 inhibitor was as described in Example 4. Twelve 8-week-old C57 mice purchased from Laboratory Animal Center, Sun Yat-sen University were selected and divided evenly into two groups. The mice were intraperitoneally injected with 5FU at a dose of 150 mg/kg once. The injection of the inhibitor ABC294640 and the solvent control solution was as described in Example 4, which started from the day after 5-fluorouracil injection, followed by injections once every other day, at a dose of 10 mg/kg, until the end of the experiment. Periphery blood (PB) of each mouse was separately collected to determine white blood cell (WBC) counts 0, 1, 5 and 11 days after 5-FU administration. T-test analysis was carried out using Graphpad6.0, and differences were considered statistically significant when P<0.05.

[4] = test system: platelets; test: Platelet recovery after bone marrow transplantation; conditions: 7-35 days after bone marrow transplantation; ABC294640 10 mg/kg every other day; vs solvent control
Method: (§1) Twenty-five 8-week-old C57 mice (purchased from Laboratory Animal Center, Sun Yat-sen University) were selected and kept in a specific pathogen free (SPF) environment. 5 mice were randomly selected and sacrificed by cervical dislocation. Femurs and tibias were taken and the bone marrow was obtained from the bone marrow cavity with an 1 ml syringe. Bone marrow was dispersed to form a single cell suspension and lysed with red blood cell lysis buffer for 2 min to remove red blood cells, followed by filtering through a 70 μm filter screen to obtain a single cell suspension. The other 20 mice were treated with X-ray radiation at a dose of 900 cGy, and were injected with 400,000 of the prepared bone marrow single cell suspension via tail vein, respectively. Then, the recipient mice were divided evenly into 2 groups, and mice of the ABC294640 treatment group were subjected to intraperitoneal injection of ABC294640 every other day. Mice in the control group was injected with a solvent solution control (1:1 of physiological saline: PEG400) solution. ABC294640 was purchased from Selleck and dissolved in dimethyl sulfoxide (DMSO), and diluted with a mixture solution of polyethylene glycol 400 (PEG400) and physiological saline (1:1) to be administered at a dose of 10 mg/kg.
(§2) Preparation of SphK2 inhibitors was as described in Example 10. […]

[5] = test system: white blood cells; test: White blood cell recovery after bone marrow transplantation; conditions: 7-35 days after bone marrow transplantation; ABC294640 10 mg/kg every other day; vs solvent control
Method: as §1, §2

[6] = test system: hematopoietic stem cells; test: Serial transplantation repopulation assay of bone marrow cells after 5FU and ABC294640 treatment
Excerpt: FIG. 28. illustrates the quantification of functional HSCs by transplantation assay. 2×10^5 bone marrow cells from C57BL/6J mice after 5FU and ABC294640 or vehicle control treatment were transplanted into […] mice along with 2×10^5 recipient bone marrow cells. 1×10^6 bone marrow cells from primary or secondary recipient mice were transplanted into […] mice in secondary or tertiary recipients respectively. PB analysis for total engrafted donor cells at the indicated number of weeks after transplantation. FIG. 29. illustrates the percentage of donor-derived B, T and myeloid lineage cells at 16 weeks after transplantation. Repopulation analyses was also performed to investigate whether ABC294640 treatment functionally promotes HSC regeneration after chemotherapeutic stress.

[7] = day 14 post 5FU treatment, FIG. 26
[8] = 16 weeks after transplantation, FIG. 29
[9] = at 16 weeks, donor bone marrow after 5FU and ABC294640 vs solvent control, FIG. 28

SMILES: O=C(NCc1ccncc1)C12CC3CC(C1)CC(c1ccc(Cl)cc1)(C3)C2 [ABC294640, 3-(4-chloro-phenyl)-adamantane-1-carboxylic acid (pyridin-4-ylmethyl)-amide]
- survival [1]: notably increased survival
- number of hematopoietic stem cells in bone marrow ([2]; after 5FU 150 mg/kg i.p., ABC294640 10 mg/kg every other day x5, day 12, **P<0.01, FIG. 4): increased significantly
- increase of CD150 HSC pool size [2, 7]: about 2.2 fold
- increase of LT-HSC pool size [2, 7]: about 2.2 fold
- increase of ST-HSC pool size [2, 7]: about 1.6 fold
- number of white blood cells from the peripheral blood [3]: significantly increased
- number of platelets in the peripheral blood [4]: significantly (*P<0.05, and ***P<0.001) increased
- number of white blood cells in the peripheral blood [5]: significantly (*P<0.05, **P<0.01 and ***P<0.001) increased
- lymphopoiesis in recipients [6, 8]: markedly promoted lymphopoiesis
- myeloid skewing in recipients [6, 8]: suppressed myeloid skewing
- increase of reconstitution, primary transplantation [6, 9]: about 1.7 fold
- increase of reconstitution, secondary transplantation [6, 9]: about 1.5 fold
- increase of reconstitution, tertiary transplantation [6, 9]: about 1.9 fold
